Assay results from ChEMBL document CHEMBL6078704, “Redesigning Berberines and Sanguinarines to Target Soluble Epoxide Hydrolase for Enhanced Anti-Inflammatory Efficacy” (J Med Chem, 2024).
Activity calls are given as the source filed them. No cut-off for these calls is given here.

Assays:
[1] = AUC (0 to 24 hrs) in Sprague-Dawley rat at 5 mg/kg, iv measured up to 24 hrs; assay type: ADME, organism-based; details: in vivo
Mus musculus [2] = experiment: Antiinflammatory activity against cerulein-induced acute pancreatitis in CD1 mouse assessed as increase in plasma 8,9-EET/DHET ratio at 20 mg/kg, ip pretreated with cerulein followed by compound injection on 30 and 150 mins and measured 6 hrs post cerulein treatment relative to model group; assay type: functional; details: time 30-360 min
Mus musculus [3] = experiment: In vivo inhibition sEH activity in cerulein-induced acute pancreatitis in CD1 mouse model assessed as enzyme activity in pancreatic homogenate at 20 mg/kg, ip administered 30 and 150 mins post-cerulein treatment measured after 6 hrs post-cerulein treatment; assay type: functional, organism-based; details: time 30-360 min
HepG2 = experiment: Cytotoxicity against human HepG2 cells assessed as cell viability at 0.5 to 5 uM measured after 48 hrs by CCK-8 assay; assay type: toxicity, cell-based; details: hepg2, 48 h, dose 0.5-5 µM
[4] = Volume of distribution (Vz) in Sprague-Dawley rat at 5 mg/kg, iv measured up to 24 hrs; assay type: ADME, organism-based; details: in vivo, read-out: Vz
Mus musculus [5] = experiment: Antiinflammatory activity against cerulein-induced acute pancreatitis in CD1 mouse assessed as increase in pancreatic 8,9-EET/DHET ratio at 20 mg/kg, ip pretreated with cerulein followed by compound injection on 30 and 150 mins and measured 6 hrs post cerulein treatment relative to model group; assay type: functional; details: time 30-360 min
[6] = Half life in Sprague-Dawley rat at 20 mg/kg, po measured up to 24 hrs; assay type: ADME, organism-based; details: in vivo
[7] = AUC (0 to 24 hrs) in Sprague-Dawley rat at 20 mg/kg, po measured up to 24 hrs; assay type: ADME, organism-based; details: in vivo
[8] = Tmax in Sprague-Dawley rat at 5 mg/kg, iv measured up to 24 hrs; assay type: ADME, organism-based; details: in vivo
[9] = Clearance in Sprague-Dawley rat at 5 mg/kg, iv measured up to 24 hrs; assay type: ADME, organism-based; details: in vivo
[10] = Acute toxicity in BALB/c mouse assessed as pathological changes in kidney tissue by measuring inflammation at 100 mg/kg, po single dose measured for 24 hrs; assay type: organism-based; details: in vivo
[11] = Cmax in Sprague-Dawley rat at 5 mg/kg, iv measured up to 24 hrs; assay type: ADME, organism-based; details: in vivo
[12] = Acute toxicity in female BALB/c mouse assessed as physiological changes at 100 mg/kg, po single dose measured for 24 hrs; assay type: organism-based; details: in vivo
[13] = Clearance in Sprague-Dawley rat at 20 mg/kg, po measured up to 24 hrs; assay type: ADME, organism-based; details: in vivo
Mus musculus [14] = experiment: Anti-inflammatory activity in carrageen-induced paw edema BALB/c mouse model assessed as inhibition of soft tissue edema and inflammation measured immediately at 20 mg/kg, po measured at 3 hrs; assay type: functional
Mus musculus [15] = experiment: (§1) Anti-inflammatory activity in cerulein-induced acute pancreatitis in CD1 mouse model assessed as decrease in plasma IL-6 level at 20 mg/kg, ip administered 30 and 150 mins post-cerulein treatment measured after 6 hrs post-cerulein treatment by ELISA; assay type: functional, organism-based
Staphylococcus aureus [16] = experiment: Antimicrobial activity against methicillin-resistant Staphylococcus aureus 19B120 by microbroth dilution method; assay type: functional
[17] = Volume of distribution (Vz) in Sprague-Dawley rat at 20 mg/kg, po measured up to 24 hrs; assay type: ADME, organism-based; details: in vivo
HEK-293T = experiment: Cytotoxicity against human 293T cells assessed as cell viability at 0.5 to 5 uM measured after 48 hrs by CCK-8 assay; assay type: toxicity, cell-based; details: dose 0.5-5 µM
[18] = Half life in Sprague-Dawley rat at 5 mg/kg, iv measured up to 24 hrs; assay type: ADME, organism-based; details: in vivo
[19] = Oral bioavailability in Sprague-Dawley rat at 20 mg/kg measured up to 24 hrs; assay type: ADME, organism-based; details: in vivo
[20] = Tmax in Sprague-Dawley rat at 20 mg/kg, po measured up to 24 hrs; assay type: ADME, organism-based; details: in vivo
Mus musculus [21] = experiment: Antiinflammatory activity against cerulein-induced acute pancreatitis in CD1 mouse assessed as increase in plasma 14,15-EET/DHET ratio at 20 mg/kg, ip pretreated with cerulein followed by compound injection on 30 and 150 mins and measured 6 hrs post cerulein treatment relative to model group; assay type: functional; details: time 30-360 min
[22] = AUC (0 to infinity) in Sprague-Dawley rat at 5 mg/kg, iv measured up to 24 hrs; assay type: ADME, organism-based; details: in vivo
Mus musculus [23] = experiment: as §1, with “cerulein-induced pancreatitis by measuring pancreatic histopathology” for “plasma IL-6 level”, “H and E staining based analysis” for “ELISA”; assay type: functional, organism-based; details: time 30-360 min
[24] = Acute toxicity in BALB/c mouse assessed as pathological changes in liver tissue by measuring inflammation at 100 mg/kg, po single dose measured for 24 hrs; assay type: organism-based; details: in vivo
Staphylococcus aureus [25] = experiment: Antimicrobial activity against Staphylococcus aureus ATCC 29213 by microbroth dilution method; assay type: functional
[26] = Acute toxicity in BALB/c mouse assessed as pathological changes in kidney tissue by measuring necrosis at 100 mg/kg, po single dose measured for 24 hrs; assay type: organism-based; details: in vivo
[27] = Acute toxicity in BALB/c mouse assessed as pathological changes in kidney tissue by measuring hemorrhage at 100 mg/kg, po single dose measured for 24 hrs; assay type: organism-based; details: in vivo
[28] = Cmax in Sprague-Dawley rat at 20 mg/kg, po measured up to 24 hrs; assay type: ADME, organism-based; details: in vivo
[29] = Acute toxicity in BALB/c mouse assessed as pathological changes in liver tissue by measuring necrosis at 100 mg/kg, po single dose measured for 24 hrs; assay type: organism-based; details: in vivo
[30] = Acute toxicity in male BALB/c mouse assessed as physiological changes at 100 mg/kg, po single dose measured for 24 hrs; assay type: organism-based; details: in vivo
[31] = AUC (0 to infinity) in Sprague-Dawley rat at 20 mg/kg, po measured up to 24 hrs; assay type: ADME, organism-based; details: in vivo
[32] = Acute toxicity in BALB/c mouse assessed as pathological changes in liver tissue by measuring hemorrhage at 100 mg/kg, po single dose measured for 24 hrs; assay type: organism-based; details: in vivo
Mus musculus [33] = experiment: Anti-inflammatory activity in cerulein-induced acute pancreatitis in CD1 mouse model assessed as decrease in plasma TNFalpha level at 20 mg/kg, ip administered 30 and 150 mins post-cerulein treatment measured after 6 hrs post-cerulein treatment by ELISA; assay type: functional, organism-based
Mus musculus [34] = experiment: Antiinflammatory activity against cerulein-induced acute pancreatitis in CD1 mouse assessed as increase in pancreatic 14,15-EET/DHET ratio at 20 mg/kg, ip pretreated with cerulein followed by compound injection on 30 and 150 mins and measured 6 hrs post cerulein treatment relative to model group; assay type: functional; details: time 30-360 min

With COc1cc2c(cc1OC)[C@H]1Cc3ccc(NC(=O)NCc4ccc(OC(F)(F)F)cc4)cc3CN1CC2 as the compound, how does the AUC(0-t) at 24 h [1] read?
Its AUC(0-t) at 24 h is 27800 ng·h/mL.

And the “fold change (FC)” value (Mus musculus [2])?
Its value is 3.8.

And the Activity (Mus musculus [3])?
The Activity was “Active”.

And the Activity (HepG2)?
Its Activity is “Non-toxic”.

What about the Vd [4] of the same compound?
Its Vd is 1.49 L/kg.

And the “fold change (FC)” value (Mus musculus [5])?
Its value is 5.4.

What about the half-life [6] of the same compound?
The half-life was 7.2 h.

And the AUC(0-t) at 24 h [7]?
The AUC(0-t) at 24 h was 99500 ng·h/mL.

What about the Tmax [8] of the same compound?
Its Tmax is 4.8 min.

What about the clearance [9] of the same compound?
The clearance was 2.85 mL/min/kg.

And the Activity [10]?
The Activity was “Non-toxic”.

And the Cmax [11]?
Its Cmax is 4860 ng/mL.

And the Activity [12]?
The Activity was “Non-toxic”.

And the CL/F [13]?
The CL/F was 3.03 mL/min/kg.

What about the inhibition in vivo at 20 mg/kg (Mus musculus [14]) of the same compound?
Its inhibition in vivo at 20 mg/kg is 33%.

What about the Activity (Mus musculus [15]) of the same compound?
The Activity was “Active”.

And the MIC (Staphylococcus aureus [16])?
Its MIC is greater than 64 µg/mL.

And the Vz [17]?
The Vz was 1.889 L/kg.

And the Activity (HEK-293T)?
Its Activity is “Non-toxic”.

And the half-life [18]?
The half-life was 6.1 h.

And the bioavailability [19]?
The bioavailability was 89.3%.

What about the Tmax [20] of the same compound?
Its Tmax is 1.67 h.

What about the “fold change (FC)” value (Mus musculus [21]) of the same compound?
Its value is 15.4.

And the AUC(0-inf) [22]?
Its AUC(0-inf) is 29600 ng·h/mL.

And the Activity (Mus musculus [23])?
The Activity was “Active”.

What about the Activity [24] of the same compound?
Its Activity is “Non-toxic”.

What about the MIC (Staphylococcus aureus [25]) of the same compound?
The MIC was greater than 64 µg/mL.

And the Activity [26]?
The Activity was “Non-toxic”.

What about the Activity [27] of the same compound?
Its Activity is “Non-toxic”.

What about the Cmax [28] of the same compound?
Its Cmax is 10300 ng/mL.

And the Activity [29]?
Its Activity is “Non-toxic”.

And the Activity [30]?
Its Activity is “Non-toxic”.

And the AUC(0-inf) [31]?
The AUC(0-inf) was 110000 ng·h/mL.

What about the Activity [32] of the same compound?
The Activity was “Non-toxic”.

What about the Activity (Mus musculus [33]) of the same compound?
Its Activity is “Active”.

And the “fold change (FC)” value (Mus musculus [34])?
The value was 26.
